# Legend:
# [1] = tested on: Peptide (NH2-)FLNCCPGCCMEP(-COOH) [SEQ ID No 6]; assay: Complex formation with tetracysteine-tagged peptide in MOPS/MES/EDT buffer, LC-MS analysis; type: binding; settings: probe in DMSO + 1 mM peptide, stirred 10-30 minutes
# Procedure: Experiments were performed according to Nature Protocols Vol.3 No.9, 1527-1534, (Adams & Tsien) with minor modifications.
# Materials: Peptide (NH2—)[…](—COOH) [SEQ ID No 6], M.w: 1316.63, supplied by INNOVAGEN, Sweden, MOPS sodium salt FW: 231.2 CAS [71119-22-7], MES sodium salt FW: 164.16 CAS [19767-45-4], and EDT FW:94.2 CAS [540-63-6] were used as received.
# HPLC analyses employed a Waters Alliance 2795 LC system, equipped with an XBridge C18 3.0×50 mm 3.5 μm column. The mass detector had polarity ES+/polarity ES-. Solvents, A: 0.1 M NH3 in milliQ water, B: MeOH. Gradient, A: 95% 0.1 min, 0.1-4 min A:95% to B:100%, 4.0-4.6 min B:100%.
# The radiodetector employed was a Raytest Star (solid cell). Chromatography with radiodetection was performed using a Kromasil C18, 5μ 250×10 mm column, and an isocratic eluent composed of 35% acetonitrile in 50 mM ammonium acetate, at a flow rate of 2.0 mL/min.
# To this solution was added 200 μL of 1 mM PSMXB-4 (in DMSO). […] The reaction mixture was stirred for 30 minutes. […] The mass peaks corresponded to dianionic and trianionic species.
# To this solution was added 200 μL of 1 mM PSMXB-6 (in DMSO). […] The reaction mixture was stirred for 30 minutes. […] The mass peak corresponded to the dianionic species.
# The reaction mixture is stirred for 10 minutes. […] The mass peak corresponded to the dianionic species. […] HPLC purification allowed isolation of the pure, tritiated complex.
# [2] = tested on: unrelated peptide with N-terminal biotin; assay: Surface plasmon resonance, reference channel with unrelated biotinylated control peptide; type: binding; settings: 100 μM injected
# Text: The biotinylated peptide was immobilized on a sensor chip (Sensor Chip SA BiaCore) by non-covalent capture to streptavidin according to manufacturer instructions. An unrelated peptide with N-terminal biotin was coupled to a reference channel. […] At the end of the injection phase, the sensor surface was washed (Wash arrow FIG. 1A) with […] pH7.4, 0.15 M NaCl.
Compound,complex formation with peptide by LC-MS [1],interaction with unrelated control peptide [2]
"COc1ccc2c(-c3ccc(F)cc3)c3cc([As]4SCCS4)c(=O)cc-3oc2c1[As]1SCCS1 [PSMXB-6, 2,5-di-(1,3,2-Dithiarsolan-2yl)-9(4-fluorophenyl)-6-methoxy-3-fluorone]",mass spectrum consistent with the complex,No interaction was detected
"O=c1ccc2c(-c3ccc(F)cc3)c3ccc(O)c([As]4SCCS4)c3oc-2c1[As]1SCCS1 [PSMXB-4, 2,5-di-(1,3,2-dithiarsolan-2-yl)-9-(4-fluorophenyl)-6-hydroxy-3-fluorone]",mass spectrum consistent with the complex,–
"2,5-di-(1,3,2-Dithiarsolan-2yl)-9(4-fluorophenyl)-6-[^3H3]methoxy-3-fluorone [6-[^3H3CO]-PSMXB-6]",complete conversion into the complex,–

# — US8852552B2, “Agents and methods for visualizing analytes” (priority 2010, dated 2014)
